Reference: CN116444420A, “β-catenin/BCL9蛋白蛋白相互作用的小分子抑制剂及其应用” (Shanghai Pharmaceutical Industry Research Institute Co ltd, priority 2021, dated 2023)

Target: T1, β-catenin/BCL9 protein-protein [β-catenin/BCL9蛋白-蛋白] (Homo sapiens, UniProt P35222)
T1 construct: β-catenin(1-781)
T1 sequence (P35222 1-781): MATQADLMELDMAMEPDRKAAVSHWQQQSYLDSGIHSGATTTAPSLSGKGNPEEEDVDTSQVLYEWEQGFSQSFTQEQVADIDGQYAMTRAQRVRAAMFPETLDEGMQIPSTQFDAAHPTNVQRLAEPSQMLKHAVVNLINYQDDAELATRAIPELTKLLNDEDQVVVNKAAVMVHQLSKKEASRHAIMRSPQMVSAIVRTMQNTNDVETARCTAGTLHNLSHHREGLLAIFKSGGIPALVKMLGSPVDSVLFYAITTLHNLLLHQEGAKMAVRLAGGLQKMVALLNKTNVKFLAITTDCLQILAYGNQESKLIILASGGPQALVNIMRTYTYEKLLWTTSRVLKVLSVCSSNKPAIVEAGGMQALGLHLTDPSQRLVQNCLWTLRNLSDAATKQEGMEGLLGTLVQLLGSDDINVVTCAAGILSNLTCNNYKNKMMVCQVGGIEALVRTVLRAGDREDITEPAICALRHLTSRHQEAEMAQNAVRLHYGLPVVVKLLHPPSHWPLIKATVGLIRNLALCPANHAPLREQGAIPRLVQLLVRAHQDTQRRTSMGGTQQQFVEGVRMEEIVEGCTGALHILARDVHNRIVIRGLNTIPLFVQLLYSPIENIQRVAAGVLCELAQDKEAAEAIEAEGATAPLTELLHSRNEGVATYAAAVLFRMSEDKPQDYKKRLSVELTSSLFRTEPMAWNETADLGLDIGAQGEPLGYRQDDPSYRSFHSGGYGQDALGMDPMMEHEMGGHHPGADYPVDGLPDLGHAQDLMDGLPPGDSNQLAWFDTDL
Assay: β-catenin/BCL9 protein-protein affinity, fluorescence polarisation (Example 71)
Type: binding
Details: better than compound c

Compound: CC(C)(Oc1cccc(C2CCCN(C(=O)c3cccc(-c4ccc(F)c(F)c4)c3)C2)c1)C(=O)N1CCOCC1 (stereo not shown) [化合物II-60, 2-(3-(1-(3',4'-二氟-[1,1'-联苯]-3-羰基)哌啶-3-基)苯氧基)-2-甲基-1-吗啉丙-1-酮]
- affinity activity compared with reference compound c: 亲和活性更优

Compound: CC(C)(Oc1cccc(C2CCCN(S(=O)(=O)c3cccc(C4CCCCC4)c3)C2)c1)C(=O)O (stereo not shown) [化合物II-16, 2-(3-(1-((3-环己基苯基)磺酰基)哌啶-3-基)苯氧基)-2-甲基丙酸]
- affinity activity compared with reference compound c: 亲和活性更优

Compound: CC(C)(Oc1cccc(C2CCCN(C(=O)c3cccc(-c4ccc(F)c(F)c4)c3)C2)c1)C(=O)N1CCC(O)CC1 (stereo not shown) [化合物II-63, 2-(3-(1-(3',4'-二氟-[1,1'-联苯]-3-羰基)哌啶-3-基)苯氧基)-1-(4-羟基哌啶-1-基)-2-甲基丙-1-酮]
- affinity activity compared with reference compound c: 亲和活性更优

Compound: CC(C)c1ccc(-c2cccc(S(=O)(=O)N3CCCC(c4cccc(OC(C)(C)C(=O)NS(=O)(=O)c5cccc(F)c5)c4)C3)c2)cc1 (stereo not shown) [化合物II-44, N-((3-氟苯基)磺酰基)-2-(3-(1-((4'-异丙基-[1,1'-联苯]-3-基)磺酰)哌啶-3-基苯氧基)-2-甲基丙酰胺]
- affinity activity compared with reference compound c: 亲和活性更优

Compound: CC(C)(Oc1cccc(C2CCCN(S(=O)(=O)c3cccc(-c4cccs4)c3)C2)c1)C(=O)O (stereo not shown) [化合物II-17, 2-甲基-2-(3-(1-((3-(噻吩-2-基)苯基)磺酰基)哌啶-3-基)苯氧基)丙酸]
- affinity activity compared with reference compound c: 亲和活性更优

Compound: CC(C)(Oc1cccc(C2CCCN(C(=O)c3cccc(-c4ccc(F)c(F)c4)c3)C2)c1)C(=O)N1C[C@@H]2C[C@H]1CN2.Cl (stereo partly drawn) [化合物II-66, (1S,4S)-5-(2-(3-(1-(3',4'-二氟-[1,1'-联苯]-3-羰基)哌啶-3-基)苯氧基)-2-甲基丙酰基)-2,5-二氮杂二环[2.2.1]庚烷-2-氯化铵]
- affinity activity compared with reference compound c: 亲和活性更优

Compound: CC(C)c1ccc(-c2cccc(S(=O)(=O)N3CCCC(c4cccc(OC(C)(C)C(=O)NS(=O)(=O)c5cccc(C#N)c5)c4)C3)c2)cc1 (stereo not shown) [化合物II-46, N-((3-氰基苯基)磺酰基)-2-(3-(1-((4'-异丙基-[1,1'-联苯]-3-基)磺酰)哌啶-3-基苯氧基)-2-甲基丙酰胺]
- affinity activity compared with reference compound c: 亲和活性更优

Compound: CC(C)(Oc1cccc(C2CCCN(C(=O)c3cccc(-c4ccc(F)c(F)c4)c3)C2)c1)C(=O)NS(=O)(=O)c1ccccc1 (stereo not shown) [化合物II-29, 2-(3-(1-(3',4'-二氟-[1,1'-联苯基]-3-羰基)哌啶-3-基)苯氧基)-2-甲基-N-(苯磺酰基)丙酰胺]
- affinity activity compared with reference compound c: 亲和活性更优

Compound: COc1cccc(S(=O)(=O)NC(=O)C(C)(C)Oc2cccc(C3CCCN(S(=O)(=O)c4cccc(-c5ccc(C(C)C)cc5)c4)C3)c2)c1 (stereo not shown) [化合物II-51, 2-(3-(1-((4'-异丙基-[1,1'-联苯]-3-基)磺酰基)哌啶-3-基(苯氧基)-N-((3-甲氧基苯基)磺酰)-2-甲基丙酰胺]
- affinity activity compared with reference compound c: 亲和活性更优

Compound: CC(C)(Oc1cccc(C2CCCN(C(=O)c3cccc(-c4ccc(F)c(F)c4)c3)C2)c1)C(=O)N1C[C@H]2C[C@@H]1CN2.Cl (stereo partly drawn) [化合物II-65, (1R,4R)-5-(2-(3-(3-(3',4'-二氟-[1,1'-联苯]-3-羰基)哌啶-3-基)苯氧基)-2-甲基丙酰基)-2,5-二氮杂二环[2.2.1]庚-2-氯化铵]
- affinity activity compared with reference compound c: 亲和活性更优

Compound: CC(C)(Oc1cccc(C2CCCN(C(=O)c3cccc(-c4ccc(F)c(F)c4)c3)C2)c1)C(=O)NS(=O)(=O)c1ccc2ccccc2c1 (stereo not shown) [化合物II-56, 2-(3-(1-(3',4'-二氟-[1,1'-联苯]-3-羰基)哌啶-3-基)苯氧基)-2-甲基-N-(萘-2-基磺酰基)丙酰胺]
- affinity activity compared with reference compound c: 亲和活性更优

Compound: CC(C)c1ccc(-c2cccc(S(=O)(=O)N3CCCC(c4cccc(OC(C)(C)C(=O)NS(=O)(=O)c5ccc(OC(F)(F)F)cc5)c4)C3)c2)cc1 (stereo not shown) [化合物II-48, 2-(3-(1-((4'-异丙基-[1,1'-联苯]-3-基)磺酰基)哌啶-3-基苯氧基)-2-甲基-N-((4-(三氟甲氧基)苯基)磺酰)丙酰胺]
- affinity activity compared with reference compound c: 亲和活性更优

Compound: CC(C)(Oc1cccc(C2CCCN(C(=O)c3cccc(-c4ccc(F)c(F)c4)c3)C2)c1)C(=O)NS(=O)(=O)c1ccc(C(F)(F)F)cc1 (stereo not shown) [化合物II-55, 2-(3-(1-(3',4'-二氟-[1,1'-联苯]-3-羰基)哌啶-3-基)苯氧基)-2-甲基-N-((4-(三氟甲基)苯基)磺酰基)丙酰胺]
- affinity activity compared with reference compound c: 亲和活性更优

Compound: CC(C)c1ccc(-c2cccc(S(=O)(=O)N3CCCC(c4cccc(OC(C)(C)C(=O)NS(=O)(=O)c5ccc(F)cc5)c4)C3)c2)cc1 (stereo not shown) [化合物II-43, N-((4-氟苯基)磺酰基)-2-(3-(1-((4'-异丙基-[1,1'-联苯]-3-基)磺酰)哌啶-3-基苯氧基)-2-甲基丙酰胺]
- affinity activity compared with reference compound c: 亲和活性更优

Compound: CC(C)(Oc1cccc(C2CCCN(C(=O)c3cccc(-c4ccc(F)c(F)c4)c3)C2)c1)C(=O)N1CCC(=O)CC1 (stereo not shown) [化合物II-57, 1-(2-(3-(1-(3',4'-二氟-[1,1'-联苯]-3-羰基)哌啶-3-基)苯氧基)-2-甲基丙酰基)哌嗪-4-酮]
- affinity activity compared with reference compound c: 亲和活性更优

Compound: CC(C)c1ccc(-c2cccc(S(=O)(=O)N3CCCC(c4cccc(OC(C)(C)C(=O)NS(=O)(=O)c5cccc(C(F)(F)F)c5)c4)C3)c2)cc1 (stereo not shown) [化合物II-40, 2-(3-(1-((4'-异丙基-[1,1'-联苯]-3-基)磺酰基)哌啶-3-基(苯氧基)-2-甲基-N-((3-(三氟甲基)苯基)磺酰)丙酰胺]
- affinity activity compared with reference compound c: 亲和活性更优

Compound: CC(C)(Oc1cccc(C2CCCN(C(=O)c3cccc(-c4ccc(F)c(F)c4)c3)C2)c1)C(=O)N1CCNCC1.Cl (stereo not shown) [化合物II-58, 4-(2-(3-(1-(3',4'-二氟-[1,1'-联苯]-3-羰基)哌啶-3-基)苯氧基)-2-甲基丙酰基)哌嗪-1-氯化铵]
- affinity activity compared with reference compound c: 亲和活性更优

Compound: CC(C)c1ccc(-c2cccc(S(=O)(=O)N3CCCC(c4cccc(OC(C)(C)C(=O)NS(=O)(=O)c5cccc([N+](=O)[O-])c5)c4)C3)c2)cc1 (stereo not shown) [化合物II-45, 2-(3-(1-((4'-异丙基-[1,1'-联苯]-3-基)磺酰基)哌啶-3-基苯氧基)-2-甲基-N-((3-硝基苯基)磺酰)丙酰胺]
- affinity activity compared with reference compound c: 亲和活性更优

Compound: COc1ccc(S(=O)(=O)NC(=O)C(C)(C)Oc2cccc(C3CCCN(C(=O)c4cccc(-c5ccc(F)c(F)c5)c4)C3)c2)cc1 (stereo not shown) [化合物II-68, 2-(3-(1-(3',4'-二氟-[1,1'-联苯]-3-羰基)哌啶-3-基)苯氧基)-N-((4-甲氧基苯基)磺酰基)-2-甲基丙酰胺]
- affinity activity compared with reference compound c: 亲和活性更优

Compound: CC(C)(Oc1cccc(C2CCCN(C(=O)c3cccc(-c4ccccc4)c3)C2)c1)C(=O)O (stereo not shown) [化合物II-9, 2-(3-(1-([1,1'-联苯基]-3-羰基)哌啶-3-基)苯氧基)-2-甲基丙酸]
- affinity activity compared with reference compound c: 亲和活性更优

Compound: CC(C)c1ccc(-c2cccc(S(=O)(=O)N3CCCC(c4cccc(OC(C)(C)C(=O)NS(=O)(=O)c5ccc(C#N)cc5)c4)C3)c2)cc1 (stereo not shown) [化合物II-37, N-((4-氰基苯基)磺酰基)-2-(3-(1-((4'-异丙基-[1,1'-联苯]-3-基)磺酰)哌啶-3-基(苯氧基)-2-甲基丙酰胺]
- affinity activity compared with reference compound c: 亲和活性更优

Compound: CC(C)(Oc1cccc(C2CCCN(C(=O)c3cccc(-c4ccc(F)c(F)c4)c3)C2)c1)C(=O)NC1CCNCC1.Cl (stereo not shown) [化合物II-61, 4-(2-(3-(1-(3',4'-二氟-[1,1'-联苯]-3-羰基)哌啶-3-基)苯氧基)-2-甲基丙酰胺)哌啶-1-氯化铵]
- affinity activity compared with reference compound c: 亲和活性更优

Compound: CC(C)c1ccc(-c2cccc(S(=O)(=O)N3CCCC(c4cccc(OC(C)(C)C(=O)NS(=O)(=O)c5ccc(C(F)(F)F)cc5Cl)c4)C3)c2)cc1 (stereo not shown) [化合物II-52, N-((2-氯-4-(三氟甲基)苯基)磺酰基)-2-(3-(1-((4'-异丙基-[1,1'-联苯]-3-基)磺酰)哌啶-3-基苯氧基)-2-甲基丙酰胺]
- affinity activity compared with reference compound c: 亲和活性更优

Compound: CC(C)c1ccc(-c2cccc(S(=O)(=O)N3CCCC(c4cccc(OC(C)(C)C(=O)NS(=O)(=O)c5ccc6ccccc6c5)c4)C3)c2)cc1 (stereo not shown) [化合物II-50, 2-(3-(1-((4'-异丙基-[1,1'-联苯]-3-基)磺酰基)哌啶-3-基(苯氧基)-2-甲基-N-(萘-2-基磺酰)丙酰胺]
- affinity activity compared with reference compound c: 亲和活性更优

Compound: CC(C)c1ccc(-c2cccc(S(=O)(=O)N3CCCC(c4cccc(OC(C)(C)C(=O)NS(=O)(=O)c5ccc([N+](=O)[O-])cc5)c4)C3)c2)cc1 (stereo not shown) [化合物II-42, 2-(3-(1-((4'-异丙基-[1,1'-联苯]-3-基)磺酰基)哌啶-3-基苯氧基)-2-甲基-N-((4-硝基苯基)磺酰)丙酰胺]
- affinity activity compared with reference compound c: 亲和活性更优
